US20180325914A1, “INCREASING STORAGE OF VITAMIN A, VITAMIN D AND/OR LIPIDS” (Salk Institute for Biological Studies, priority 2014, published 2018)

Tests used:
[1] = test system: Pancreatic cancer cell lines (AsPc1, MIAPaCa2, PancT and P53 2.1.1); assay: Viability of pancreatic cancer cell lines in astromal or stromal hydrogels (Cell TiterGlo); assay type: cell-based; details: 500 nM JQ1, 72 hours, astromal or stromal culture conditions
Description: Pancreatic cancer cell lines (AsPc1, MIAPaCa2, PancT and P53 2.1.1) were embedded in HyStem®-C hydrogels (ESI-BIO) at a concentration of 5×10^5 cells/ml. For astromal hydrogels, Glycosil® and Extralink™ components were resuspended in degassed H2O per manufacturer's procotol, and Glycosil®+degassed H2O+Extralink™ were combined in a 1:1:1 ratio. For the stromal hydrogels, Glycosil®, Gelin-S® (denatured collagens), and Extralink™ components were resuspended in degassed H2O per manufacturer's procotol, and Glycosil®+Gelin-S®+Extralink™ were combined in a 1:1:1 ratio. Pancreatic cancer cells were resuspended in the hydrogels and seeded into 96-well plates, 100 μl/well (5×10^4 cells/well). Triplicate wells were seeded for each condition to be tested. After hydrogel polymerization was evident (30-45 minutes), DMEM+10% FBS was added to astromal wells and conditioned media from cancer-associated PSCs was added to stromal wells. Conditioned media was prepared by growing primary cancer-associated PSCs (grown out of human pancreatic tumors) to confluency, changing to fresh DMEM+10% FBS, then collecting the media after 48 hours and passing through a 0.45 um filter to clear debris. […] Viability assays were performed after 72 hours using the Cell TiterGlo reagent (Promega) according to the manufacturer's instructions, but with a 45 minute incubation to ensure efficient lysis in 3D cultures.

[2] = test system: p53 2.1.1 cell line in FVB/n hosts; assay: Orthotopic allograft of p53 2.1.1 pancreatic cancer cells; assay type: in vivo, mouse
Protocol: The p53 2.1.1 cell line, a luciferase-expressing cell line derived from autochthonous pancreatic cancer in pure FVB/n mice, was used for orthotopic transplantation into pancreata of immune-competent FVB/n hosts. Cells were resuspended in 50% DMEM+10% FBS, 50% Matrigel and 1,000 cells per mouse were injected into the body of the pancreas. One week after transplantation, transplanted mice were subject to bioluminescence imaging to measure luciferase activity and, thus, tumor burden. […] Mice were imaged again to measure bioluminescence signal (tumor burden) at experimental endpoint; pancreata were removed, weighed, and fixed or flash-frozen for further analysis.

[3] = 75 mg/kg JQ1 i.p. daily for 14 days
[4] = 75 mg/kg JQ1 i.p. daily for 14 days vs vehicle

Cc1sc2c(c1C)C(c1ccc(Cl)cc1)=N[C@@H](CC(=O)OC(C)(C)C)c1nnc(C)n1-2 [JQ1, (S)-tert-butyl 2-(4-(4-chlorophenyl)-2,3,9-trimethyl-6H-thieno[3,2-f][1,2,4]triazolo[4,3-a][1,4]diazepin-6-yl)acetate]
growth of pancreatic cancer cell lines in vitro [1]: significantly reduced
BLI and pancreas weight [2, 3]: significantly reduced
number of phospho-H3+ tumor cells, and number of CD45 and DAPI containing cells [2, 3]: significantly reduced
decrease in cell proliferation (phospho-H3+) [2, 4]: about 50%
decrease in leukocyte recruitment (CD45) [2, 4]: about 70%
decrease in luciferase light units (tumor cell count, tumor burden) [2, 4]: about 33%
